# Measured values taken from patent US9422283B2, “Salts and polymorphs of a substituted imidazopyridinyl-aminopyridine compound” (ArQule, Inc., priority 2014, dated 2016).
# Entries after “also recorded” stand apart in the source; their conditions may differ. Counter-ions that a name gives are not always drawn. Like-named read-outs stand apart in the source and are kept apart here.
# Assays:
# Type in all cases: physicochemical
# [1] = Dynamic Vapour Sorption (DVS)
# Method: Approximately 10 mg of sample was placed into a mesh vapour sorption balance pan and loaded into a DVS-1 dynamic vapour sorption balance by Surface Measurement Systems. The sample was subjected to a ramping profile of 0-90%, 90-0% relative humidity (RH) at 10% increments for anhydrous samples and 30-90%, 90-0%, 0-90%, 90-0% for hydrated samples, maintaining the sample at each step until a stable weight had been achieved (99.5% step completion). The weight changes during the sorption/desorption cycles were plotted, allowing the hygroscopic nature of the sample to be determined.
# [2] = Stability testing of bis-mesylate forms for 1 week (XRPD, HPLC purity)
# Method: Form A, Form B, Form C, Form D, Form E and Form I were exposed to environments of 40° C./75% RH, ambient light (about 22° C.) and elevated temperature (80° C.) for 1 week to determine the stability. The resulting solids were analyzed by XRPD to establish if any form changes had occurred and by HPLC to determine purity.
# [3] = Aqueous solubility studies of bis-mesylate forms (slurry in deionised water, HPLC, XRPD); settings: about 24 hours; for polymorphic form after slurrying in deionised water (XRPD): ambient temperature
# Method: Purity and concentration analyses were carried out using the following method:
# • Pan Number 186003045 Column Temperature: 25° C. Autosampler Temperature: 5° C. Detection: 226 nm Mobile Phase A: 95:5:0.1% Water:Methanol:TFA Mobile Phase B: 95:5:0.1% Methanol:Water:TFA Gradient: See table below for conditions Flow Rate: 1.0 mL/minute Injection Volume: 10 μl Analysis Time: 36 minutes Re-equilibration Time: 4 minutes Data Collection time: 36 minutes Needle Wash: 100% Methanol
# Slurries of Form A, Form B, Form C, Form D, Form E and Form I were created in deionised water and shaken for about 24 hours at ambient temperature (about 22° C.). The resulting solutions were then analyzed by HPLC and the aqueous solubility was determined. The remaining solids were analyzed by XRPD to determine if any form changes had occurred during slurrying.
# [4] = Solvent solubility screen by solvent addition technique; settings: for observation in solubility screen: 40° C.; for solubility: 40 °C, thermodynamic from solid, amorphous input, read-out: Solubility (mg/mL) at 40° C.
# Method: The amorphous form of Compound A bis-mesylate salt was used as the input material for the solubility screen. Solubility values were estimated by a solvent addition technique in order to provide approximate values for generating slurries during later experiments. Approximately 15 mg of amorphous material was weighed out into 24 vials. Each solvent was added to the appropriate vial in 10 aliquots of 10 μl, 5 aliquots of 20 μl, 3 aliquots of 100 μl and 1 aliquot of 500 μl or until the material dissolved. In between additions, the sample was heated to 40° C. To vials which already contained 1000 μl of solvent but still had observable solid material, a further aliquot of 1000 μl of solvent was added. If 2000 μl of solvent was added without dissolution of the solid, solubility was calculated to be below this point.
smiles,measurement,setting,value
"Nc1ncccc1-c1nc2ccc(-c3ccccc3)nc2n1-c1ccc(C2(N)CCC2)cc1 [Form A, 3-(3-(4-(1-aminocyclobutyl)phenyl)-5-phenyl-3H-imidazo[4,5-b]pyridin-2-yl)pyridin-2-amine]",DVS (summary Table 21),[1],Moderately
same,DVS desorption behaviour / hysteresis,[1],No significant hysteresis
same,hygroscopicity (DVS),[1],moderate hygroscopicity
same,polymorphic form after DVS analysis (XRPD),[1],consistent with Form A; also recorded: Form A post
same,DVS water uptake,[1]; up to 70% RH,about 2.4%
same,HPLC purity after stability test,[2]; 40° C./75% RH,about 99.8%
same,polymorphic form after stability test (XRPD),[2]; 40° C./75% RH,No change
same,HPLC purity after stability test,[2]; 80° C.,about 99.8%
same,polymorphic form after stability test (XRPD),[2]; 80° C.,No change
same,polymorphic form after stability test (XRPD),[2]; ambient light (about 22° C.),No change
same,HPLC purity after stability test,[2]; ambient temperature,about 99.7%
same,polymorphic form after slurrying in deionised water (XRPD),[3],converted to Form E
same,solubility at 24 h,"[3]; deionised water, 22 °C, water, thermodynamic from solid, deionised water, ambient temperature (about 22° C.), read-out: aqueous solubility (HPLC concentration analysis)",~383000 µg/mL
"Nc1ncccc1-c1nc2ccc(-c3ccccc3)nc2n1-c1ccc(C2(N)CCC2)cc1 [Compound A bis-mesylate salt, 3-(3-(4-(1-aminocyclobutyl)phenyl)-5-phenyl-3H-imidazo[4,5-b]pyridin-2-yl)pyridin-2-amine]",observation in solubility screen,"[4]; 1,4-Dioxane",Colourless solution
same,observation in solubility screen,[4]; 2-Methyl THF,Colourless solution
same,observation in solubility screen,[4]; 2-Propanol,Good solubility
same,observation in solubility screen,[4]; 2-Propanol:water (50:50),Good solubility
same,solubility,"[4]; aqueous with cosolvent or surfactant or cyclodextrin, 2-Propanol:water (50:50)",~400 mg/mL
same,solubility,"[4]; organic solvent or mixture, 1,4-Dioxane",< 8 mg/mL
same,solubility,"[4]; organic solvent or mixture, 1-Butanol",< 8 mg/mL
same,solubility,"[4]; organic solvent or mixture, 2-Ethoxyethanol",< 8 mg/mL
same,solubility,"[4]; organic solvent or mixture, 2-Methyl THF",< 8 mg/mL
same,solubility,"[4]; organic solvent or mixture, 2-Propanol",~25 mg/mL
same,solubility,"[4]; organic solvent or mixture, Acetone:water (90:10)",~16 mg/mL
same,solubility,"[4]; organic solvent or mixture, Acetone",< 8 mg/mL
same,solubility,"[4]; organic solvent or mixture, Acetonitrile",< 8 mg/mL
same,solubility,"[4]; organic solvent or mixture, Cyclohexane",< 8 mg/mL
same,solubility,"[4]; organic solvent or mixture, Dichloromethane",< 8 mg/mL
same,solubility,"[4]; organic solvent or mixture, Diisopropyl ether",< 8 mg/mL
same,solubility,"[4]; organic solvent or mixture, Dimethylsulfoxide",~126 mg/mL
same,solubility,"[4]; organic solvent or mixture, Ethanol",< 8 mg/mL
same,solubility,"[4]; organic solvent or mixture, Ethyl acetate",< 8 mg/mL
same,solubility,"[4]; organic solvent or mixture, Heptane",< 8 mg/mL
same,solubility,"[4]; organic solvent or mixture, Isopropyl acetate",< 8 mg/mL
same,solubility,"[4]; organic solvent or mixture, Methanol",~40 mg/mL
same,solubility,"[4]; organic solvent or mixture, Methylethyl ketone",< 8 mg/mL
same,solubility,"[4]; organic solvent or mixture, Methylisobutyl ketone",< 8 mg/mL
same,solubility,"[4]; organic solvent or mixture, Tetrahydrofuran",< 8 mg/mL
same,solubility,"[4]; organic solvent or mixture, Toluene",< 8 mg/mL
same,solubility,"[4]; organic solvent or mixture, tert-Butylmethyl ether",< 8 mg/mL
same,solubility,[4]; Water,~769 mg/mL
same,observation in solubility screen,[4]; Acetone:water (90:10),Good solubility
same,observation in solubility screen,[4]; Cyclohexane,Colourless solution
same,observation in solubility screen,[4]; Dichloromethane,Colourless solution
same,observation in solubility screen,[4]; Diisopropyl ether,Colourless solution
same,observation in solubility screen,[4]; Dimethylsulfoxide,Good solubility
same,observation in solubility screen,[4]; Heptane,Colourless solution
same,observation in solubility screen,[4]; Isopropyl acetate,Colourless solution
same,observation in solubility screen,[4]; Methanol,Good solubility
same,observation in solubility screen,[4]; Methylethyl ketone,Colourless solution
same,observation in solubility screen,[4]; Methylisobutyl ketone,Colourless solution
same,observation in solubility screen,[4]; Toluene,Colourless solution
same,observation in solubility screen,[4]; Water,Good solubility
same,observation in solubility screen,[4]; tert-Butylmethyl ether,Colourless solution
"Nc1ncccc1-c1nc2ccc(-c3ccccc3)nc2n1-c1ccc(C2(N)CCC2)cc1 [Form C, 3-(3-(4-(1-aminocyclobutyl)phenyl)-5-phenyl-3H-imidazo[4,5-b]pyridin-2-yl)pyridin-2-amine]",DVS (summary Table 21),[1],Non-hygroscopic
same,hygroscopicity (DVS),[1],non-hygroscopic
same,polymorphic form after DVS analysis (XRPD),[1],consistent with Form C; also recorded: Form C post
same,DVS total water uptake,[1]; up to 90% RH,about 0.54%
same,HPLC purity after stability test,[2]; 40° C./75% RH,about 99.9%
same,polymorphic form after stability test (XRPD),[2]; 40° C./75% RH,No change
same,HPLC purity after stability test,[2]; 80° C.,about 99.9%
same,polymorphic form after stability test (XRPD),[2]; 80° C.,No change
same,polymorphic form after stability test (XRPD),[2]; ambient light (about 22° C.),No change
same,HPLC purity after stability test,[2]; ambient temperature,about 99.9%
same,polymorphic form after slurrying in deionised water (XRPD),[3],converted to Form E
"Nc1ncccc1-c1nc2ccc(-c3ccccc3)nc2n1-c1ccc(C2(N)CCC2)cc1 [Form B, 3-(3-(4-(1-aminocyclobutyl)phenyl)-5-phenyl-3H-imidazo[4,5-b]pyridin-2-yl)pyridin-2-amine]",DVS (summary Table 21),[1],Gradual uptake
same,DVS desorption behaviour / hysteresis,[1],gradual loss from 90% down to 0% RH
same,HPLC purity after stability test,[2]; 40° C./75% RH,about 99.8%
same,polymorphic form after stability test (XRPD),[2]; 40° C./75% RH,converted to Form J
same,HPLC purity after stability test,[2]; 80° C.,about 99.8%
same,polymorphic form after stability test (XRPD),[2]; 80° C.,Form I
same,polymorphic form after stability test (XRPD),[2]; ambient light (about 22° C.),remained unchanged
same,HPLC purity after stability test,[2]; ambient temperature,about 99.7%
same,polymorphic form after slurrying in deionised water (XRPD),[3],converted to Form E
"Nc1ncccc1-c1nc2ccc(-c3ccccc3)nc2n1-c1ccc(C2(N)CCC2)cc1 [Form I, 3-(3-(4-(1-aminocyclobutyl)phenyl)-5-phenyl-3H-imidazo[4,5-b]pyridin-2-yl)pyridin-2-amine]",DVS (summary Table 21),[1],Hydration occurs
same,DVS desorption behaviour / hysteresis,[1],gradual loss of water/dehydration below 50% RH
same,polymorphic form after DVS analysis (XRPD),[1],Form I post
same,DVS water uptake,"[1]; sorption cycle, between 40% and 50% RH",about 10%
same,HPLC purity after stability test,[2]; 40° C./75% RH,about 99.8%
same,polymorphic form after stability test (XRPD),[2]; 40° C./75% RH,conversion to Form J
same,HPLC purity after stability test,[2]; 80° C.,about 99.9%
same,polymorphic form after stability test (XRPD),[2]; 80° C.,remained unchanged
same,polymorphic form after stability test (XRPD),[2]; ambient light (about 22° C.),remained unchanged
same,HPLC purity after stability test,[2]; ambient temperature,about 99.6%
same,polymorphic form after slurrying in deionised water (XRPD),[3],converted to Form E
